Source: paper PMC10657444, “Design and evaluation of tadpole-like conformational antimicrobial peptides” (Communications Biology, 2023)
≈ marks a conversion by molar mass, not a printed value. Where “and” joins values, the source holds several entries; their conditions need not be identical. Equal values may be shown once. Read-outs that look alike come from different tables or passages of the source. Non-standard residues stand in square brackets, D forms with d. Residues, ends and D or L forms follow the SMILES beside them.

How the values were obtained:
MRSA 3393 = format: cell-based, Staphylococcus aureus; conditions: 3393
Excerpt: (§1) Bacteria were cultivated in Luria-Bertani (LB) broth.

MRSA ATCC 43300 = format: cell-based, Staphylococcus aureus; conditions: ATCC 43300
Excerpt: as §1

MRSA USA 300 [1] = format: cell-based, Staphylococcus aureus
Excerpt: as §1

MTT cytotoxicity assay = format: cell-based, human; conditions: human; for viability at 72 h, 0.39 µM / viability at 72 h, 6.25 µM / viability at 72 h, 12.5 µM / viability at 72 h, 0.78 µM / viability at 72 h, 1.57 µM / viability at 72 h, 3.13 µM / viability at 72 h, 25 µM / viability at 72 h, 50 µM / viability at 72 h, 100 µM: HEK293T cells
[2] = system: K. pneumoniae ATCC 700603; format: cell-based, Klebsiella pneumoniae
Method: The stability of peptides in different media was assessed using the MIC assay described above. Here, the stability of HT2 and RI-HT2 in serum, salt, and different pH were analyzed using methods previously described with some modifications. For serum stability, a solution of 10% or 20% fetal bovine serum (FBS) was made by diluting fetal bovine serum with phosphate buffer saline (PBS). HT2 and RI-HT2 were added for a final concentration of 160 µg/mL of peptide in the FBS solution, and incubation 2 h. Suspension containing no peptide was considered the negative control. The MIC of HT2 and RI-HT2 against MRSA USA 300 and K. pneumoniae ATCC 700603 were measured. For the acid stability assays, the peptides were incubated with different pH values of PBS (pH = 5.5 or 6.4) at 37 °C. These peptide mixtures were then serially diluted in a 96-well plate for the evaluation of antimicrobial activity against bacterial strains. Similarly, for salt stability, the peptides were assessed for their antimicrobial activity against MRSA USA 300 and K. pneumoniae ATCC 700603 in the presence of 150 mM NaCl.

[3] = system: K. pneumoniae ATCC 700603; assay: Time-kill assay; format: cell-based, Klebsiella pneumoniae
Method: Time-kill assays were done in tubes (in 1.5 mL of LB) and antibiotics at the 1 ×, 2 ×, 4 × and 8 × MIC. Tubes were inoculated (5 × 10^6 CFU/mL) with MRSA USA 300 and K. pneumoniae ATCC 700603 and incubated at 37 °C under shaking. Serial dilutions of the cultures were plated at each desired time point (0, 1, 3, 6, and 24 h), using a multichannel pipette as follows: in line 1 of a 96-well plate, 100 µL of bacterial suspension was added, while 90 µL of 0.9% sterile saline per well was added to the other lines. At selected time points, 100 µL of bacterial suspension was transferred from the time-kill assay plate to the first line. The wells were further diluted 1 in 10 (0.9% saline) for the appropriate number of dilutions and 10 μL of each dilution was spotted in duplicate onto MH agar plates, then incubated overnight at 37°C. The colonies in each spot were counted and used to calculate the number of viable CFU/mL remaining in the original culture by considering the dilution factors.

MRSA USA 300 [4] = assay: Transmission electron microscopy; format: cell-based, Staphylococcus aureus; conditions: 2 × MIC, 60 min
Method: (§2) The processing method of the samples for transmission electron microscopy (TEM) was the same as the treatment for SEM. The samples were then prefixed with 2.5% glutaraldehyde at 4°C overnight, post-fixed with osmium tetroxide for 70 min, and washed twice with PBS (pH 7.4). Subsequently, the samples were dehydrated for 10 min in a graded ethanol series (30, 50, 70, 90, and 100%) followed by 10 min in a mixture of absolute ethanol and acetone (1:1, v/v) and 10 min in absolute acetone. The specimens were transferred to a mixture of absolute acetone and epoxy resin (1:1, v/v) for 30 min and then to pure epoxy resin overnight at a constant temperature. Finally, the samples were sectioned using an ultramicrotome, stained with uranyl acetate and lead citrate, and then observed by TEM (Hitachi H-7650, Japan).

[5] = system: K. pneumoniae ATCC 700603; assay: Transmission electron microscopy; format: cell-based, Klebsiella pneumoniae; conditions: 2 × MIC, 60 min
Method: as §2

[6] = HEK293T, read-out: OD450, cytotoxicity (Fig 2a), replicates
[7] = OD450, cytotoxicity (Fig 2a), replicates

CC[C@H](C)[C@H](NC(=O)[C@H](CCCNC(=N)N)NC(=O)[C@H](CCCNC(=N)N)NC(=O)[C@H](CC(C)C)NC(=O)[C@H](Cc1ccccc1)NC(=O)[C@@H](N)CCCNC(=N)N)C(=O)N[C@@H](Cc1ccccc1)C(=O)N[C@@H](Cc1ccccc1)C(=O)N[C@@H](Cc1ccccc1)C(=O)N[C@@H](Cc1ccccc1)C(N)=O [HT2] (H-RFLRRIFFFF-NH2)
MIC Gram+ MRSA 3393 (MRSA 3393): 1.57 µM (≈ 2.27 µg/mL)
MIC Gram+ MRSA ATCC 43300 (MRSA ATCC 43300): 1.57 µM (≈ 2.27 µg/mL)
MIC Gram+ MRSA USA 300 (MRSA USA 300 [1]): 1.57 µM (≈ 2.27 µg/mL)
IC50 at 72 h (MTT cytotoxicity assay): > 100 µM
viability at 72 h, 0.39 µM (MTT cytotoxicity assay; HEK293T, 0.39 µM, read-out: OD450, cytotoxicity (Fig 2a), replicates): 96.7%
viability at 72 h, 6.25 µM (MTT cytotoxicity assay; [6]): 99.2%
viability at 72 h, 12.5 µM (MTT cytotoxicity assay; [6]): 92.8%
viability at 72 h, 0.39 µM (MTT cytotoxicity assay; [7]): 100%
viability at 72 h, 0.78 µM (MTT cytotoxicity assay; [7]): 94.2%
viability at 72 h, 1.57 µM (MTT cytotoxicity assay; [7]): 93.1%
viability at 72 h, 3.13 µM (MTT cytotoxicity assay; [7]): 95.4%
viability at 72 h, 25 µM (MTT cytotoxicity assay; [7]): 93.2%
viability at 72 h, 50 µM (MTT cytotoxicity assay; [7]): 98.4%
viability at 72 h, 100 µM (MTT cytotoxicity assay; [7]): 94.3%
MIC against K. pneumoniae ATCC 700603 ([2]; 150 mM NaCl): 12.5 µM (≈ 18.1 µg/mL)
MIC against K. pneumoniae ATCC 700603 ([2]; 10% FBS): 6.25 µM (≈ 9.05 µg/mL)
MIC against K. pneumoniae ATCC 700603 ([2]; 20% FBS): 6.25 µM (≈ 9.05 µg/mL)
MIC against K. pneumoniae ATCC 700603 ([2]; Normal medium): 6.25 µM (≈ 9.05 µg/mL)
MIC against K. pneumoniae ATCC 700603 ([2]; pH 5.5): 12.5 µM (≈ 18.1 µg/mL)
MIC against K. pneumoniae ATCC 700603 ([2]; pH 6.4): 6.25 µM (≈ 9.05 µg/mL)
viable count, time-kill ([3]; 2 × MIC, 0 h): 3000000 CFU/mL and 3500000 CFU/mL and 3400000 CFU/mL
viable count, time-kill ([3]; 2 × MIC, 1 h): 275000 CFU/mL and 375000 CFU/mL and 310000 CFU/mL
viable count, time-kill ([3]; 2 × MIC, 3 h): 33000 CFU/mL and 31000 CFU/mL
viable count, time-kill ([3]; 2 × MIC, 6 h): 14000 CFU/mL and 18000 CFU/mL and 16000 CFU/mL
viable count, time-kill ([3]; 2 × MIC, 24 h): 18000 CFU/mL and 24000 CFU/mL and 23000 CFU/mL
viable count, time-kill ([3]; 4 × MIC, 0 h): 3000000 CFU/mL and 3500000 CFU/mL and 3400000 CFU/mL
viable count, time-kill ([3]; 4 × MIC, 1 h): 70000 CFU/mL and 65000 CFU/mL and 66000 CFU/mL
viable count, time-kill ([3]; 4 × MIC, 6 h): 8000 CFU/mL and 7400 CFU/mL and 9000 CFU/mL
viable count, time-kill ([3]; 4 × MIC, 24 h): 16000 CFU/mL and 21000 CFU/mL and 19000 CFU/mL
viable count, time-kill ([3]; 8 × MIC, 0 h): 3000000 CFU/mL and 3500000 CFU/mL and 3400000 CFU/mL
viable count, time-kill ([3]; 8 × MIC, 1 h): 520000 CFU/mL and 540000 CFU/mL and 550000 CFU/mL
viable count, time-kill ([3]; 8 × MIC, 3 h): 500 CFU/mL and 700 CFU/mL
viable count, time-kill ([3]; 8 × MIC, 24 h): 100 CFU/mL and 200 CFU/mL
killing outcome (in words) ([3]; 8 × MIC, after 24 h): cannot completely be killed
viable count, time-kill ([3]; MIC, 0 h): 3000000 CFU/mL and 3500000 CFU/mL and 3400000 CFU/mL
viable count, time-kill ([3]; MIC, 1 h): 400000 CFU/mL and 330000 CFU/mL and 410000 CFU/mL
viable count, time-kill ([3]; MIC, 6 h): 430000 CFU/mL and 570000 CFU/mL and 480000 CFU/mL
viable count, time-kill ([3]; MIC, 24 h): 51000000 CFU/mL and 58000000 CFU/mL and 54000000 CFU/mL
membrane and intracellular structure by TEM (in words) (MRSA USA 300 [4]): cytoplasmic membranes became blurred and separated
membrane and intracellular structure by TEM (in words) [5]: cytoplasmic membranes became blurred and separated

CC[C@@H](C)[C@@H](NC(=O)[C@@H](Cc1ccccc1)NC(=O)[C@@H](Cc1ccccc1)NC(=O)[C@@H](Cc1ccccc1)NC(=O)[C@H](N)Cc1ccccc1)C(=O)N[C@H](CCCNC(=N)N)C(=O)N[C@H](CCCNC(=N)N)C(=O)N[C@H](CC(C)C)C(=O)N[C@H](Cc1ccccc1)C(=O)N[C@H](CCCNC(=N)N)C(N)=O [RI-HT2] (H-[dF][dF][dF][dF][dI][dR][dR][dL][dF][dR]-NH2; N-terminus assumed)
MIC Gram+ MRSA 3393 (MRSA 3393): 3.13 µM (≈ 4.53 µg/mL)
MIC Gram+ MRSA ATCC 43300 (MRSA ATCC 43300): 3.13 µM (≈ 4.53 µg/mL)
MIC Gram+ MRSA USA 300 (MRSA USA 300 [1]): 3.13 µM (≈ 4.53 µg/mL)
IC50 at 72 h (MTT cytotoxicity assay): > 100 µM
viability at 72 h, 6.25 µM (MTT cytotoxicity assay; [6]): 90.2%
viability at 72 h, 12.5 µM (MTT cytotoxicity assay; [6]): 87.8%
viability at 72 h, 0.39 µM (MTT cytotoxicity assay; [7]): 102%
viability at 72 h, 0.78 µM (MTT cytotoxicity assay; [7]): 94.4%
viability at 72 h, 1.57 µM (MTT cytotoxicity assay; [7]): 92.8%
viability at 72 h, 3.13 µM (MTT cytotoxicity assay; [7]): 93%
viability at 72 h, 25 µM (MTT cytotoxicity assay; [7]): 84.2%
viability at 72 h, 50 µM (MTT cytotoxicity assay; [7]): 77.8%
viability at 72 h, 100 µM (MTT cytotoxicity assay; [7]): 75.8%
MIC against K. pneumoniae ATCC 700603 ([2]; 150 mM NaCl): 12.5 µM (≈ 18.1 µg/mL)
MIC against K. pneumoniae ATCC 700603 ([2]; ATCC 700603): >100 µM
MIC against K. pneumoniae ATCC 700603 ([2]; Normal medium): 6.25 µM (≈ 9.05 µg/mL)
MIC against K. pneumoniae ATCC 700603 ([2]; pH 5.5): 12.5 µM (≈ 18.1 µg/mL)
MIC against K. pneumoniae ATCC 700603 ([2]; pH 6.4): 12.5 µM (≈ 18.1 µg/mL)
viable count, time-kill ([3]; 2 × MIC, 0 h): 12000000 CFU/mL and 16000000 CFU/mL and 14000000 CFU/mL
viable count, time-kill ([3]; 2 × MIC, 1 h): 10000 CFU/mL and 17000 CFU/mL and 15000 CFU/mL
viable count, time-kill ([3]; 2 × MIC, 3 h): 100 CFU/mL
viable count, time-kill ([3]; 2 × MIC, 6 h): 220000 CFU/mL and 310000 CFU/mL and 270000 CFU/mL
viable count, time-kill ([3]; 2 × MIC, 24 h): 1000000000000 CFU/mL and 1300000000000 CFU/mL
viable count, time-kill ([3]; 4 × MIC, 0 h): 12000000 CFU/mL and 16000000 CFU/mL and 14000000 CFU/mL
viable count, time-kill ([3]; 4 × MIC, 1 h): 2500 CFU/mL and 3500 CFU/mL and 3000 CFU/mL
viable count, time-kill ([3]; 4 × MIC, 3 h): 0 CFU/mL
viable count, time-kill ([3]; 4 × MIC, 6 h): 24000 CFU/mL and 32000 CFU/mL and 30000 CFU/mL
viable count, time-kill ([3]; 4 × MIC, 24 h): 3800000 CFU/mL and 3400000 CFU/mL
time to complete killing ([3]; 8 × MIC): 3 h
viable count, time-kill ([3]; 8 × MIC, 0 h): 12000000 CFU/mL and 16000000 CFU/mL and 14000000 CFU/mL
viable count, time-kill ([3]; 8 × MIC, 1 h): 300 CFU/mL and 500 CFU/mL
viable count, time-kill ([3]; 8 × MIC, 3 h): 0 CFU/mL
viable count, time-kill ([3]; 8 × MIC, 6 h): 0 CFU/mL
viable count, time-kill ([3]; 8 × MIC, 24 h): 0 CFU/mL
viable count, time-kill ([3]; MIC, 0 h): 12000000 CFU/mL and 16000000 CFU/mL and 14000000 CFU/mL
viable count, time-kill ([3]; MIC, 1 h): 270000 CFU/mL and 230000 CFU/mL and 250000 CFU/mL
viable count, time-kill ([3]; MIC, 3 h): 23000 CFU/mL and 16000 CFU/mL and 17000 CFU/mL
viable count, time-kill ([3]; MIC, 6 h): 3400000 CFU/mL and 2800000 CFU/mL and 3800000 CFU/mL
viable count, time-kill ([3]; MIC, 24 h): 1000000000000 CFU/mL and 1200000000000 CFU/mL and 1700000000000 CFU/mL
membrane and intracellular structure by TEM (in words) (MRSA USA 300 [4]): cytoplasmic membranes became blurred and separated
membrane and intracellular structure by TEM (in words) [5]: cytoplasmic membranes became blurred and separated
